Reference: PubChem BioAssay (NCI)
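Each compound was tested at five concentrations against cells in 96-well plates for 48 hours. The concentration for full growth arrest is given as TGI.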

How the values were obtained:
Assay in all cases: inhibition of tumour cell growth, NCI panel, 48 h
786-0 renal = tested on: 786-0 renal
A498 renal = tested on: A498 renal
A549 NSCLC = tested on: A549 NSCLC
ACHN renal = tested on: ACHN renal
BT-549 breast = tested on: BT-549 breast
CAKI-1 renal = tested on: CAKI-1 renal
CCRF-CEM leukemia = tested on: CCRF-CEM leukemia
COLO 205 colon = tested on: COLO 205 colon
DU-145 prostate = tested on: DU-145 prostate
EKVX NSCLC = tested on: EKVX NSCLC
HCT-116 colon = tested on: HCT-116 colon
HCT-15 colon = tested on: HCT-15 colon
HL-60(TB) leukemia = tested on: HL-60(TB) leukemia
HOP-62 NSCLC = tested on: HOP-62 NSCLC
HOP-92 NSCLC = tested on: HOP-92 NSCLC
HS 578T breast = tested on: HS 578T breast
HT29 colon = tested on: HT29 colon
IGROV1 ovarian = tested on: IGROV1 ovarian
K-562 leukemia = tested on: K-562 leukemia
KM12 colon = tested on: KM12 colon
LOX IMVI melanoma = tested on: LOX IMVI melanoma
M14 melanoma = tested on: M14 melanoma
MALME-3M melanoma = tested on: MALME-3M melanoma
MCF7 breast = tested on: MCF7 breast
MDA-MB-231 breast = tested on: MDA-MB-231 breast
MDA-MB-435 = tested on: MDA-MB-435
MDA-N = tested on: MDA-N
MOLT-4 leukemia = tested on: MOLT-4 leukemia
NCI-H226 lung = tested on: NCI-H226 lung
NCI-H23 lung = tested on: NCI-H23 lung
NCI-H460 lung = tested on: NCI-H460 lung
NCI-H522 lung = tested on: NCI-H522 lung
NCI/ADR-RES ovarian = tested on: NCI/ADR-RES ovarian
OVCAR-3 ovarian = tested on: OVCAR-3 ovarian
OVCAR-4 ovarian = tested on: OVCAR-4 ovarian
OVCAR-5 ovarian = tested on: OVCAR-5 ovarian
OVCAR-8 ovarian = tested on: OVCAR-8 ovarian
PC-3 prostate = tested on: PC-3 prostate
RPMI-8226 leukemia = tested on: RPMI-8226 leukemia
RXF 393 renal = tested on: RXF 393 renal
SF-268 CNS = tested on: SF-268 CNS
SF-295 CNS = tested on: SF-295 CNS
SK-MEL-2 melanoma = tested on: SK-MEL-2 melanoma
SK-MEL-28 melanoma = tested on: SK-MEL-28 melanoma
SK-MEL-5 melanoma = tested on: SK-MEL-5 melanoma
SN12C renal = tested on: SN12C renal
SNB-19 CNS = tested on: SNB-19 CNS
SNB-75 CNS = tested on: SNB-75 CNS
SR leukemia = tested on: SR leukemia
SW-620 colon = tested on: SW-620 colon
T-47D breast = tested on: T-47D breast
TK-10 renal = tested on: TK-10 renal
UACC-257 melanoma = tested on: UACC-257 melanoma
UACC-62 melanoma = tested on: UACC-62 melanoma
UO-31 renal = tested on: UO-31 renal
SF-539 CNS = tested on: SF-539 CNS
SK-OV-3 ovarian = tested on: SK-OV-3 ovarian
U251 CNS = tested on: U251 CNS

Cc1cc2cc3cc(C)c(N)cc3nc2cc1N
TGI (786-0 renal): 1.75 µM | TGI (A498 renal): 1.89 µM | TGI (A549 NSCLC): 2.07 µM | TGI (ACHN renal): 1.6 µM | TGI (BT-549 breast): > 44.5 µM | TGI (CAKI-1 renal): 2.64 µM | TGI (CCRF-CEM leukemia): 2.52 µM | TGI (COLO 205 colon): 1.98 µM | TGI (DU-145 prostate): 1.87 µM | TGI (EKVX NSCLC): 1.47 µM | TGI (HCT-116 colon): 1.31 µM | TGI (HCT-15 colon): 2.2 µM | TGI (HL-60(TB) leukemia): 11 µM | TGI (HOP-62 NSCLC): 1.32 µM | TGI (HOP-92 NSCLC): 4.89 µM | TGI (HS 578T breast): 10.5 µM | TGI (HT29 colon): 1.6 µM | TGI (IGROV1 ovarian): 1.7 µM | TGI (K-562 leukemia): 3.28 µM | TGI (KM12 colon): 2.03 µM | TGI (LOX IMVI melanoma): 2.11 µM | TGI (M14 melanoma): 21.9 µM | TGI (MALME-3M melanoma): 2.72 µM | TGI (MCF7 breast): 2.71 µM | TGI (MDA-MB-231 breast): 1.27 µM | TGI (MDA-MB-435): 11 µM | TGI (MDA-N): 2.93 µM | TGI (MOLT-4 leukemia): 0.894 µM | TGI (NCI-H226 lung): 11.7 µM | TGI (NCI-H23 lung): 2.24 µM | TGI (NCI-H460 lung): 1.21 µM | TGI (NCI-H522 lung): 1.7 µM | TGI (NCI/ADR-RES ovarian): 9.83 µM | TGI (OVCAR-3 ovarian): 1.85 µM | TGI (OVCAR-4 ovarian): 1.49 µM | TGI (OVCAR-5 ovarian): 2.65 µM | TGI (OVCAR-8 ovarian): 2.2 µM | TGI (PC-3 prostate): 6.84 µM | TGI (RPMI-8226 leukemia): 1.31 µM | TGI (RXF 393 renal): 2.47 µM | TGI (SF-268 CNS): 2.71 µM | TGI (SF-295 CNS): 1.41 µM | TGI (SK-MEL-2 melanoma): 10.4 µM | TGI (SK-MEL-28 melanoma): 2.94 µM | TGI (SK-MEL-5 melanoma): 14.6 µM | TGI (SN12C renal): 1.63 µM | TGI (SNB-19 CNS): 3.29 µM | TGI (SNB-75 CNS): 6.9 µM | TGI (SR leukemia): 1.44 µM | TGI (SW-620 colon): 1.6 µM | TGI (T-47D breast): 2.43 µM | TGI (TK-10 renal): 1.62 µM | TGI (UACC-257 melanoma): 8.57 µM | TGI (UACC-62 melanoma): 2.3 µM | TGI (UO-31 renal): 10.4 µM

COC(=O)CNC(=O)C(Cc1ccccc1)NC(=O)c1ccc(-c2ccc(Cl)cc2Cl)o1 (stereo not drawn)
TGI (786-0 renal): 38.7 µM | TGI (A498 renal): 38.8 µM | TGI (A549 NSCLC): > 100 µM | TGI (ACHN renal): 66.5 µM | TGI (BT-549 breast): > 100 µM | TGI (CAKI-1 renal): 77.6 µM | TGI (CCRF-CEM leukemia): 39.5 µM | TGI (COLO 205 colon): 30.2 µM | TGI (DU-145 prostate): > 100 µM | TGI (EKVX NSCLC): 78.6 µM | TGI (HCT-116 colon): 43.2 µM | TGI (HCT-15 colon): 89.4 µM | TGI (HL-60(TB) leukemia): 41.2 µM | TGI (HOP-62 NSCLC): 78.8 µM | TGI (HOP-92 NSCLC): 39.1 µM | TGI (HS 578T breast): 52.1 µM | TGI (HT29 colon): 52.7 µM | TGI (IGROV1 ovarian): > 100 µM | TGI (K-562 leukemia): > 100 µM | TGI (KM12 colon): 91.2 µM | TGI (LOX IMVI melanoma): 69 µM | TGI (M14 melanoma): > 100 µM | TGI (MALME-3M melanoma): 87.4 µM | TGI (MCF7 breast): 62.1 µM | TGI (MDA-MB-231 breast): 52.4 µM | TGI (MDA-MB-435): > 100 µM | TGI (MDA-N): 86.8 µM | TGI (MOLT-4 leukemia): 49.2 µM | TGI (NCI-H226 lung): > 100 µM | TGI (NCI-H23 lung): > 100 µM | TGI (NCI-H460 lung): 40.3 µM | TGI (NCI-H522 lung): 43.3 µM | TGI (NCI/ADR-RES ovarian): > 100 µM | TGI (OVCAR-3 ovarian): 72.5 µM | TGI (OVCAR-4 ovarian): > 100 µM | TGI (OVCAR-5 ovarian): > 100 µM | TGI (OVCAR-8 ovarian): > 100 µM | TGI (PC-3 prostate): > 100 µM | TGI (RPMI-8226 leukemia): 51.9 µM | TGI (RXF 393 renal): 73.5 µM | TGI (SF-268 CNS): 69.8 µM | TGI (SF-295 CNS): 64.3 µM | TGI (SF-539 CNS): > 100 µM | TGI (SK-MEL-2 melanoma): 96.6 µM | TGI (SK-MEL-28 melanoma): > 100 µM | TGI (SK-MEL-5 melanoma): > 100 µM | TGI (SK-OV-3 ovarian): 84.2 µM | TGI (SN12C renal): > 100 µM | TGI (SNB-19 CNS): > 100 µM | TGI (SNB-75 CNS): > 100 µM | TGI (SR leukemia): 36 µM | TGI (SW-620 colon): > 100 µM | TGI (T-47D breast): > 100 µM | TGI (TK-10 renal): 75.2 µM | TGI (U251 CNS): > 100 µM | TGI (UACC-257 melanoma): 57.5 µM | TGI (UACC-62 melanoma): 65.1 µM | TGI (UO-31 renal): > 100 µM
